Source: PubChem BioAssay AID1918948 (Molecular Pharmacology Branch, DTP, NCI, 2023)

Test system: K-562 leukemia growth, % test/control
Experiment: Anticancer human tumor K-562 cell line growth inhibition;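 also: spheroids exposed to compounds for 7 days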;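 as to viability, T/C: 100% = DMSO vehicle wells and lower values mean fewer viable cells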
Conditions: spheroids with HUVEC and MSC; for IC50: curve of first compound; for viability, T/C: stronger effect = lower value
Outline: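 Multicellular complex spheroids of tumor cells with human endothelial cells (HUVEC) and mesenchymal stem cells; the LSD1 inhibitor iadademstat was combined with standard-of-care or investigational agents. Top concentration at or near clinical Cmax, half-log dilutions; final DMSO ≤0.25%.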

[1] = second compound 0.1 µM, first compound 0.000316 µM
[2] = second compound 0.1 µM, first compound 0.001 µM
[3] = second compound 0.1 µM, first compound 0.00316 µM
[4] = second compound 0.1 µM, first compound 0.01 µM
[5] = second compound 0.1 µM, first compound 0.0316 µM
[6] = second compound 0.1 µM, first compound 0.1 µM
[7] = second compound 0.316 µM, first compound 0.000316 µM
[8] = second compound 0.316 µM, first compound 0.001 µM
[9] = second compound 0.316 µM, first compound 0.00316 µM
[10] = second compound 0.316 µM, first compound 0.01 µM
[11] = second compound 0.316 µM, first compound 0.0316 µM
[12] = second compound 0.316 µM, first compound 0.1 µM
[13] = second compound 1 µM, first compound 0.000316 µM
[14] = second compound 1 µM, first compound 0.001 µM
[15] = second compound 1 µM, first compound 0.00316 µM
[16] = second compound 1 µM, first compound 0.01 µM
[17] = second compound 1 µM, first compound 0.0316 µM
[18] = second compound 1 µM, first compound 0.1 µM
[19] = second compound 3.16 µM, first compound 0.000316 µM
[20] = second compound 3.16 µM, first compound 0.001 µM
[21] = second compound 3.16 µM, first compound 0.00316 µM
[22] = second compound 3.16 µM, first compound 0.01 µM
[23] = second compound 3.16 µM, first compound 0.0316 µM
[24] = second compound 3.16 µM, first compound 0.1 µM
[25] = second compound 10 µM, first compound 0.000316 µM
[26] = second compound 10 µM, first compound 0.001 µM
[27] = second compound 10 µM, first compound 0.00316 µM
[28] = second compound 10 µM, first compound 0.01 µM
[29] = second compound 10 µM, first compound 0.0316 µM
[30] = second compound 10 µM, first compound 0.1 µM

`CC(C)CC(NC(=O)C(Cc1ccccc1)NC(=O)c1cnccn1)B(O)O` (stereo not given) + NC1CC1c1ccc(-c2cccc(O)c2)cc1 was tested, and the IC50 (second compound 0.1 µM) was 0.585 nM, the IC50 (second compound 0.316 µM) was 0.588 nM and the IC50 (second compound 1 µM) was 0.601 nM. The IC50 (second compound 3.16 µM) was 0.576 nM, the IC50 (second compound 10 µM) was 0.525 nM and the viability, T/C [1] was 103%. For the same molecule, the viability, T/C [2] was 3.66%, the viability, T/C [3] was 0.7% and the viability, T/C [4] was 0.61%. The viability, T/C [5] was 0.46%, the viability, T/C [6] was 0.42% and the viability, T/C [7] was 105%. The viability, T/C [8] was 3.12%, the viability, T/C [9] was 0.63% and the viability, T/C [10] was 0.53%. It also gave a viability, T/C [11] of 0.48%, a viability, T/C [12] of 0.47% and a viability, T/C [13] of 109%. It also gave a viability, T/C [14] of 3.33%, a viability, T/C [15] of 0.63% and a viability, T/C [16] of 0.53%. The viability, T/C [17] was 0.39%, the viability, T/C [18] was 0.56% and the viability, T/C [19] was 102%. The viability, T/C [20] was 2.37%, the viability, T/C [21] was 0.61% and the viability, T/C [22] was 0.46%. It also gave a viability, T/C [23] of 0.43%, a viability, T/C [24] of 0.44% and a viability, T/C [25] of 87.7%. It also gave a viability, T/C [26] of 2.01%, a viability, T/C [27] of 0.5% and a viability, T/C [28] of 0.46%. It also gave a viability, T/C [29] of 0.43% and a viability, T/C [30] of 0.39%.
Molecule `CC(C)CC(NC(=O)CNC(=O)c1cc(Cl)ccc1Cl)B1OC(=O)CC(CC(=O)O)(C(=O)O)O1` (stereo not given) + NC1CC1c1ccc(-c2cccc(O)c2)cc1 has an IC50 (second compound 0.1 µM) of 14.2 nM, an IC50 (second compound 0.316 µM) of 12.7 nM and an IC50 (second compound 1 µM) of 9.67 nM. The IC50 (second compound 3.16 µM) was 7.83 nM, the IC50 (second compound 10 µM) was 6.56 nM and the viability, T/C [1] was 110%. For the same molecule, the viability, T/C [2] was 105%, the viability, T/C [3] was 107% and the viability, T/C [4] was 66.6%. The viability, T/C [5] was 11.4%, the viability, T/C [6] was 2.83% and the viability, T/C [7] was 107%. The viability, T/C [8] was 99.7%, the viability, T/C [9] was 102% and the viability, T/C [10] was 60%. The viability, T/C [11] was 10.7%, the viability, T/C [12] was 2.8% and the viability, T/C [13] was 103%. For the same molecule, the viability, T/C [14] was 96.1%, the viability, T/C [15] was 102% and the viability, T/C [16] was 48.4%. The viability, T/C [17] was 9.51%, the viability, T/C [18] was 2.55% and the viability, T/C [19] was 101%. The viability, T/C [20] was 96.6%, the viability, T/C [21] was 101% and the viability, T/C [22] was 36.7%. The viability, T/C [23] was 9.01%, the viability, T/C [24] was 2.3% and the viability, T/C [25] was 95.5%. The viability, T/C [26] was 96.8%, the viability, T/C [27] was 97.2% and the viability, T/C [28] was 23.1%. The viability, T/C [29] was 5.77% and the viability, T/C [30] was 1.88%.
Molecule `COc1cc(Nc2ncc3c(n2)-c2ccc(Cl)cc2C(c2c(F)cccc2OC)=NC3)ccc1C(=O)O` + NC1CC1c1ccc(-c2cccc(O)c2)cc1 has an IC50 (second compound 0.1 µM) of under 3.16 nM, an IC50 (second compound 0.316 µM) of under 3.16 nM and an IC50 (second compound 1 µM) of under 3.16 nM. The IC50 (second compound 3.16 µM) was under 3.16 nM, the IC50 (second compound 10 µM) was under 3.16 nM and the viability, T/C [3] was 31.1%. For the same molecule, the viability, T/C [4] was 35.4%, the viability, T/C [5] was 35.4% and the viability, T/C [6] was 27.7%. The viability, T/C (second compound 0.1 µM, first compound 0.316 µM) was 11.1%, the viability, T/C (second compound 0.1 µM, first compound 1 µM) was 5.75% and the viability, T/C [9] was 22.8%. The viability, T/C [10] was 27.5%, the viability, T/C [11] was 27.8% and the viability, T/C [12] was 18.3%. The viability, T/C (second compound 0.316 µM, first compound 0.316 µM) was 8.22%, the viability, T/C (second compound 0.316 µM, first compound 1 µM) was 4.56% and the viability, T/C [15] was 20.2%. It also gave a viability, T/C [16] of 24.4%, a viability, T/C [17] of 22.4% and a viability, T/C [18] of 13.9%. It also gave a viability, T/C (second compound 1 µM, first compound 0.316 µM) of 6.56%, a viability, T/C (second compound 1 µM, first compound 1 µM) of 4.05% and a viability, T/C [21] of 15.5%. For the same molecule, the viability, T/C [22] was 21%, the viability, T/C [23] was 21.4% and the viability, T/C [24] was 14%. For the same molecule, the viability, T/C (second compound 3.16 µM, first compound 0.316 µM) was 6.72%, the viability, T/C (second compound 3.16 µM, first compound 1 µM) was 4.65% and the viability, T/C [27] was 10%. It also gave a viability, T/C [28] of 16.6%, a viability, T/C [29] of 20.3% and a viability, T/C [30] of 11.9%. It also gave a viability, T/C (second compound 10 µM, first compound 0.316 µM) of 6.15% and a viability, T/C (second compound 10 µM, first compound 1 µM) of 3.42%.
`O=C(C=Cc1cccc(S(=O)(=O)Nc2ccccc2)c1)NO` + NC1CC1c1ccc(-c2cccc(O)c2)cc1 showed an IC50 (second compound 0.1 µM) of 240 nM, an IC50 (second compound 0.316 µM) of 227 nM and an IC50 (second compound 1 µM) of 221 nM. For the same molecule, the IC50 (second compound 3.16 µM) was 212 nM, the IC50 (second compound 10 µM) was 140 nM and the viability, T/C (second compound 0.1 µM, first compound 0.00949 µM) was 106%. For the same molecule, the viability, T/C (second compound 0.1 µM, first compound 0.03 µM) was 103%, the viability, T/C (second compound 0.1 µM, first compound 0.0949 µM) was 102% and the viability, T/C (second compound 0.1 µM, first compound 0.3 µM) was 5.9%. The viability, T/C (second compound 0.1 µM, first compound 0.949 µM) was 2.2%, the viability, T/C (second compound 0.1 µM, first compound 3 µM) was 104% and the viability, T/C (second compound 0.316 µM, first compound 0.00949 µM) was 102%. For the same molecule, the viability, T/C (second compound 0.316 µM, first compound 0.03 µM) was 105%, the viability, T/C (second compound 0.316 µM, first compound 0.0949 µM) was 96.9% and the viability, T/C (second compound 0.316 µM, first compound 0.3 µM) was 4.4%. For the same molecule, the viability, T/C (second compound 0.316 µM, first compound 0.949 µM) was 1.16%, the viability, T/C (second compound 0.316 µM, first compound 3 µM) was 99.1% and the viability, T/C (second compound 1 µM, first compound 0.00949 µM) was 100%. For the same molecule, the viability, T/C (second compound 1 µM, first compound 0.03 µM) was 102%, the viability, T/C (second compound 1 µM, first compound 0.0949 µM) was 95.6% and the viability, T/C (second compound 1 µM, first compound 0.3 µM) was 3.61%. The viability, T/C (second compound 1 µM, first compound 0.949 µM) was 0.8%, the viability, T/C (second compound 1 µM, first compound 3 µM) was 96.4% and the viability, T/C (second compound 3.16 µM, first compound 0.00949 µM) was 98.5%. For the same molecule, the viability, T/C (second compound 3.16 µM, first compound 0.03 µM) was 101%, the viability, T/C (second compound 3.16 µM, first compound 0.0949 µM) was 89.8% and the viability, T/C (second compound 3.16 µM, first compound 0.3 µM) was 2.99%. For the same molecule, the viability, T/C (second compound 3.16 µM, first compound 0.949 µM) was 1.26%, the viability, T/C (second compound 3.16 µM, first compound 3 µM) was 94.5% and the viability, T/C (second compound 10 µM, first compound 0.00949 µM) was 84.5%. For the same molecule, the viability, T/C (second compound 10 µM, first compound 0.03 µM) was 82%, the viability, T/C (second compound 10 µM, first compound 0.0949 µM) was 59.1% and the viability, T/C (second compound 10 µM, first compound 0.3 µM) was 2.72%. The viability, T/C (second compound 10 µM, first compound 0.949 µM) was 0.89% and the viability, T/C (second compound 10 µM, first compound 3 µM) was 93.5%.
